Test results taken from patent publication US9108943B2, “Photoreactive benzamide probes for histone deacetylase 2” (THE BOARD OF TRUSTEES OF THE UNIVERSITY OF ILLINOIS, priority 2013, dated 2015).
Blank lines part the entries; values can stand above or below the molecule they belong to.

Tests used:
recombinant human HDAC2 = target: T1, recombinant human HDAC2 (Homo sapiens, UniProt Q92769); test: Fluorogenic HDAC inhibition assay, HDAC2 (Boc-L-Lys(Ac)-AMC substrate); type: biochemical; settings: for IC50: maximum preincubation time 24 h
T1 construct: purchased BPS Bioscience
Experimental: (§1) 10 μL of the enzyme stock was added to 30 μL of the probes and preincubated for different preincubation times.

[1] = target: recombinant His-tagged HDAC2 (Homo sapiens, UniProt Q92769); test: Photoaffinity labeling (photocrosslinking) of HDAC2 with TSA competition, biotin tag, streptavidin-HRP western blot; type: binding; settings: probe 25 μM, HDAC2 1.25 μM, Trichostatin A 125 μM (5-fold molar excess), 24 h, 254 nm UV
Experimental: Photoaffinity labeling studies were conducted with the probes using commercially available recombinant His-tagged HDAC2. […] The loading was confirmed by using nickel-HRP, which recognized the His-tag of the recombinant HDAC2 protein.
500 μM of DBCO-PEG4-biotin conjugate (Click Chemistry tools) in photolabeling buffer was added to initiate the [3+2] cycloaddition reaction with HDAC2-probe adduct. The cycloaddition reaction was carried out for 3 h at room temperature. Western blotting was done with 1.5 ug of purified protein with 5× loading buffer containing 10% SDS, 0.05% bromophenol blue, 50% glycerol, and β-mercaptoethanol. […] After electrophoresis, protein was transferred to a polyvinylidiene difluoride membrane (Iblot-Invitrogen). The membrane was incubated for 12 h with 5% albumin fraction V (Sigma-aldrich) in 1× Tris based saline supplemented with 0.1% Tween-20 (TBS-T). The membrane was washed three times with TBST and then incubated with Ni-HRP (1:2000) in TBST for 1 h under room temperature with slight agitation. After three washes in TBS-T, the chemilumiscent signal was detected using the enhanced chemiluminescence (ECL) kit from Pierce (Pierce Biotechnology, Rockford, Ill.). […] After three washes in PBST and water, the chemilumiscent signal was detected using the enhanced chemiluminescence (ECL) kit from Pierce (Pierce Biotechnology, Rockford, Ill.).

[2] = target: T2, purified recombinant human HDAC8 from E. coli (Homo sapiens, UniProt Q9BY41); test: Fluorogenic HDAC inhibition assay, HDAC8 (Fluor de Lys substrate); type: biochemical; settings: 10 μM inhibitor, preincubation 3 h
T2 construct: made in house; host or cells: E. coli
T2 sequence (Q9BY41 1-377): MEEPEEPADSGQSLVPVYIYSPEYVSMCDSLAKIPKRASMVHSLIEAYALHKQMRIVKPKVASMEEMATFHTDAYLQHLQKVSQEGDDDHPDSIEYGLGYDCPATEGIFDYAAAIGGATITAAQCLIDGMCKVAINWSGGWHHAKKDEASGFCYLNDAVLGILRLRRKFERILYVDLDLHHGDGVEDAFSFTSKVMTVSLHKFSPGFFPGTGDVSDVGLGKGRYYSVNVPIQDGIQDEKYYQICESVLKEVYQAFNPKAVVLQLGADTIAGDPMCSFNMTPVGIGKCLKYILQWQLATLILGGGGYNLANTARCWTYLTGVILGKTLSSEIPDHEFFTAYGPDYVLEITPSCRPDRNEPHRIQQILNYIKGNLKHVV
Experimental: as §1

T1 sequence (Q92769 whole entry): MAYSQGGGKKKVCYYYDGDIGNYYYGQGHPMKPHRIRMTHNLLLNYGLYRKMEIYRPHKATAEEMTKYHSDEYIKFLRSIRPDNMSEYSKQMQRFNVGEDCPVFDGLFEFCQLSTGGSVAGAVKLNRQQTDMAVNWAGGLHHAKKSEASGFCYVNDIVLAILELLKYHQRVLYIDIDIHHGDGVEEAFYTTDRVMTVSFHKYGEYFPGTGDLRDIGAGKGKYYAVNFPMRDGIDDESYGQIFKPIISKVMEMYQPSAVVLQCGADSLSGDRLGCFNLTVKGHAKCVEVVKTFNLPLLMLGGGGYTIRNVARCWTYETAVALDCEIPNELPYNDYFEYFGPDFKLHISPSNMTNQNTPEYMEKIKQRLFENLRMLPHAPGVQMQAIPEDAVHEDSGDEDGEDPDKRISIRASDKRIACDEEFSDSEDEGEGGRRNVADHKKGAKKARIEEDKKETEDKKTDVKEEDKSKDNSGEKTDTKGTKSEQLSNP
Sequence of recombinant His-tagged HDAC2 (Q92769 whole entry): as above

- IC50 (recombinant human HDAC2): 0.83 µM
- increase in inhibition of HDAC2 upon preincubation (IC50 ratio) (recombinant human HDAC2; preincubation 24 h vs 5 min): 41 fold
SMILES: [N-]=[N+]=NCCOc1ccc(C(=O)Nc2cc(-c3ccccc3)ccc2N)cc1N=[N+]=[N-] [probe 1e, N-(4-amino-[1,1′-biphenyl]-3-yl)-3-azido-4-(2-azidoethoxy)benzamide]

- IC50 (recombinant human HDAC2): 0.75 µM
SMILES: [N-]=[N+]=NCCOc1ccc(C(=O)Nc2cc(-c3cccs3)ccc2N)cc1N=[N+]=[N-] [probe 1f, N-(2-amino-5-(thiophen-2-yl)phenyl)-3-azido-4-(2-azidoethoxy)benzamide]

- decrease in biotinylation of HDAC2 in the presence of competing ligand [1]: slightly less pronounced
SMILES: [N-]=[N+]=NCCC(=O)Nc1ccc(C(=O)Nc2cc(N=[N+]=[N-])ccc2N)cc1 [probe 1g, N-(2-amino-5-azidophenyl)-4-(3-azidopropanamido)benzamide]

- inhibition of HDAC8 [2]: inactive
- inhibition of HDAC8 ([2]; 10 µM): did not inhibit
SMILES: [N-]=[N+]=Nc1cccc(COC(=O)NCc2ccc(C(=O)Nc3cc(-c4ccccc4)ccc3N)cc2)c1 [probe 2a, 3-azidobenzyl 4-((4-amino-[1,1′-biphenyl]-3-yl)carbamoyl)benzylcarbamate]
